Reference: patent US8354237B2, “Anti-methylation-controlled j protein antibodies and uses thereof” (University of Vermont and State Agriculture College, priority 2007, dated 2013)
Peptide text beside a SMILES is read from it. * marks the point of attachment. Cbz = O=C(OCc1ccccc1)*

Key:
Type in all cases: cell-based, human
MCF7 cells [1] = experiment: Cell viability assay (MTT assay); conditions: for response of cells to drug (percent viability, MTT assay): MCF7 cells
Experimental: (§1) MCF7 and MCF7/ADR cells were a kind gift from Dr. Ken Cowan (National Cancer Institute, Bethesda, Md.). MCF7, MCF7/ADR, MCF7/siMCJ-1B MCF7/siMCJ-3B, […], MD22, MES-SA and MES-Dx5 cells were maintained in RPMI-1640 (Life technologies, Inc., Gaithersburg, Md.) containing 5% FBS (Hyclone, Logan, Utah), Penicillin/streptomycin and 1-glutamine (Gibco). 293T cells were cultured in DMEM-F12 medium (Life technologies, Inc.) supplemented with 10% FBS (Hyclone, Logan, Utah).
(§2) The dose response of cell line to different drugs was determined by MTT assay as described previously (Conze et al., Cancer Res 61, 8851-8858, 2001; Sladowski et al., J Immunol Methods 157, 203-207, 1993). Different concentrations of drug were used, ranging from 0-100 μM for Doxorubicin, 0-30 μM for Paclitaxel and 0-30 μM for 5-Flurouracil. LD50 values were calculated by non-linear regression and plotted graphically as percentage of viable cells.

c-Jun = c-Jun expression by Western blot in MCF7 cells treated with proteasome inhibitor; conditions: MG132 5 μM, 4 h
Experimental: Whole cell extracts were prepared in lysis buffer as previously described (Pedraza-Alva et al., J Biol Chem 276, 729-737, 2001). 40-100 μg of proteins were separated by electrophoresis and transferred on to a nitrocellulose membrane (Conze et al., Cancer Res 61, 8851-8858, 2001). Primary antibodies for Western blotting include anti-ABCB1 (JSB-1 clone) from (ALEXIS corporation Switzerland), rabbit polyclonal anti-MCJ, anti-HA, anti-c-Jun, from (Cell Signaling Technology, Inc) anti-actin and the secondary antibodies goat anti-mouse HRP, goat anti-rabbit HRP and donkey anti-goat HRP Ab from (Santa Cruz Biotechnology). LUMIGLO® chemiluminescent substrate system (KPL, Maryland) was used to visualize the proteins. Levels of actin were determined as loading control.
It was determined whether the increased c-Jun DNA binding in siMCJ cells could be due to an upregulation of c-Jun protein levels. The levels of c-Jun by Western blot analysis were examined using whole cell lysates. Very low levels of c-Jun were detected in MCF7 cells, but high levels were present in MCF7/siMCJ cells (FIG. 8D). It has been previously reported that c-Jun levels can be regulated by ubiquitination and proteasome mediated degradation (Treier et al., Cell 78, 787-798, 1994). […]

MCF7 cells [2] = experiment: Analysis of drug internalization (flow cytometry, confocal microscopy)
Experimental: (§3) MCF7, MCF7/ADR, MCF7/siMCJ-1B and MCF7/siMCJ-3B cells were treated with doxorubicin (0.3 or 3 μM) for 3 h at 37° C. Negative controls had no drug added. Cells were washed 3 times with PBS and trypsinised and doxorubicin fluorescence was examined by flow cytometry using a LSRII flow cytometer (BD Biosciences, Mass.). FLP3, 695/40 nm filter with 685 nm long pass was used to measure doxorubicin fluorescence. For MCF7/siMCJ cells, EGFP was detected in FLP1, 530/30 nm band-pass with 505 nm long pass. No overlap of two fluorescences could be detected. Confocal microscopy: MCF7, MCF7/ADR, MCF7/siMCJ-1B and -3B (3×10^4) cells were seeded on BD Biocoat coverslips (BD Biosciences, Bedford, Mass.) and treated with doxorubicin in the presence or absence of veraparnil (10 μM). After different periods of time (0, 2, 3 h) cells were washed with PBS and fixed in 3.7% paraformaldehyde to be examined by confocal microscopy. Since both, EGFP (present in MCF7/siMCJ cells) and doxorubicin are excited by 488 nm, the conventional multi track type of analysis could not be used. Instead, the Lambda Mode analysis in the Zeiss confocal microscope (Zeiss LSM 510 META Confocal Laser Scanning Imaging System, Carl Ziess Microimaging Inc, Thronwood, N.Y.) was used that allows a precise analysis of the emission spectrum for each fluorochrome (Chen and Simon, J Cell Biol 148, 863-870, 2000). The cells were excited at 488 nm and emission peaks were readily separated by this methodology with EGFP emission at 500 nm and doxorubicin at 600 nm (FIG. 10).

MCF7/siMCJ-3B cells [3] = experiment: as above; conditions: 3 h; for intracellular accumulation of doxorubicin: flow cytometry
Experimental: as §3

MCF7/ADR cells [4] = experiment: as above; conditions: 0.3 and 3 μM, 3 h
Experimental: as §3

MCF7/siMCJ-1B cells [5] = experiment: as above; conditions: for effect on intracellular accumulation of doxorubicin: verapamil 10 μM
Experimental: as §3

MCF7/siMCJ-3B cells [6] = experiment: Cell viability assay (MTT assay)
Experimental: as §1, §2

MCF7/ADR cells [7] = experiment: Cell viability assay (MTT assay)
Experimental: as §1, §2

MCF7/siMCJ-1B cells [8] = experiment: Cell viability assay (MTT assay)
Experimental: as §1, §2

MCJ = MCJ mRNA expression by RT-PCR in MCF7 cells cultured with IL-6; conditions: IL-6 50 ng/ml, 8 days (one week), RT-PCR and real-time RT-PCR
Description: Total RNA was isolated using ULTRASPEC® RNA isolation systems, as recommended by the manufacturer (Biotecx Laboratories, Inc, Houston, Tex.). The first strand cDNA was obtained by reverse transcription as described previously (Conze et al., Cancer Res 61, 8851-8858, 2001). cDNA was used to detect human […], HPRT, MCJ, ABCG2 and ABCC1 expression by conventional PCR or real-time RT-PCR. Previously described primers were used for the conventional RT-PCR amplification of ABCB1 (Noonan et al., Proc Natl Acad Sci USA 87, 7160-7164, 1990), HPRT (Conze et al., Cancer Res 61, 8851-8858, 2001), ABCC1 (Harbottle et al., Int J Cancer 92, 777-783, 2001), ABCG2 (Doyle and Ross, Oncogene 22, 7340-7358, 2003) and MCJ (Shridhar et al., Cancer Res 61, 4258-4265, 2001). For the real-time RT-PCR analysis, by TAQMAN® system (Applied Biosystems), an Assay on Demand Kit for human HPRT and ABCB1 (Sigma, Genosys) was used. For the detection of MCJ by real time RT-PCR, we used the following probe and primer set were used (Sigma, Genosys) (probe 5′-[…]-3; (SEQ ID NO:22) sense primer 5′-CAGAAAATGA GTAGGCGAGAAGC-3′ (SEQ ID NO:23) and anti-sense primer 5′-[…]-3′ (SEQ ID NO:24). HPRT was used as an endogenous control to normalize the mRNA values in each sample. The relative values were determined by the comparative CT analysis method. […]

O=c1[nH]cc(F)c(=O)[nH]1 [5-FU, 5-fluorouracil]
dose-response compared between cell lines (MTT assay) (MCF7 cells [1]; MCF7, MCF7/ADR, MCF7/siMCJ-1B and -3B cells): comparable

CC(C)C[C@@H](C=O)NC(=O)[C@H](CC(C)C)NC(=O)[C@H](CC(C)C)NC(=O)OCc1ccccc1 [MG132] (Cbz-Leu-Leu-Leu-aldehyde)
c-Jun levels compared with untreated MCF7 cells (c-Jun): Increased levels

COc1cccc2c1C(=O)c1c(O)c3c(c(O)c1C2=O)C[C@@](O)(C(=O)CO)C[C@@H]3O[C@H]1C[C@H](N)[C@H](O)[C@H](C)O1 [doxorubicin]
doxorubicin fluorescence (intracellular accumulation) (MCF7 cells [2]; confocal microscopy, 1, 2 or 3 h): maximum level of intracellular accumulation was reached after 3 h | intracellular accumulation of doxorubicin (MCF7 cells [2]; flow cytometry, 0.3 and 3 μM, 3 h): High levels | doxorubicin fluorescence (intracellular accumulation) (MCF7/siMCJ-3B cells [3]; confocal microscopy): no doxorubicin fluorescence was observed | intracellular accumulation of doxorubicin (MCF7/siMCJ-3B cells [3]; 0.3 μM): no intracellular accumulation | intracellular accumulation of doxorubicin (MCF7/siMCJ-3B cells [3]; 3 μM): very low intracellular levels | intracellular accumulation of doxorubicin (MCF7/ADR cells [4]): no doxorubicin was observed | doxorubicin fluorescence (intracellular accumulation) (MCF7/siMCJ-1B cells [5]; confocal microscopy, 3 h): no doxorubicin fluorescence was observed | intracellular accumulation of doxorubicin (MCF7/siMCJ-1B cells [5]; flow cytometry, 0.3 μM, 3 h): no intracellular accumulation | intracellular accumulation of doxorubicin (MCF7/siMCJ-1B cells [5]; flow cytometry, 3 μM, 3 h): very low intracellular levels | response of cells to drug (percent viability, MTT assay) (MCF7 cells [1]): highly sensitive | response of cells to drug (percent viability, MTT assay) (MCF7/siMCJ-3B cells [6]): significantly more resistant | response of cells to drug (percent viability, MTT assay) (MCF7/ADR cells [7]): highly resistant | response of cells to drug (percent viability, MTT assay) (MCF7/siMCJ-1B cells [8]): significantly more resistant

CC(=O)O[C@H]1C(=O)[C@@]2(C)[C@H]([C@H](OC(=O)c3ccccc3)[C@]3(O)C[C@H](OC(=O)[C@H](O)[C@@H](NC(=O)c4ccccc4)c4ccccc4)C(C)=C1C3(C)C)[C@]1(OC(C)=O)CO[C@@H]1C[C@@H]2O [paclitaxel]
response of cells to drug (percent viability, MTT assay) (MCF7 cells [1]): highly sensitive | response of cells to drug (percent viability, MTT assay) (MCF7/siMCJ-3B cells [6]): highly resistant | response of cells to drug (percent viability, MTT assay) (MCF7/siMCJ-1B cells [8]): highly resistant

COc1ccc(CCN(C)CCCC(C#N)(c2ccc(OC)c(OC)c2)C(C)C)cc1OC (stereo not shown) [verapamil]
effect on intracellular accumulation of doxorubicin (MCF7 cells [2]; flow cytometry, verapamil 10 μM, doxorubicin 3 μM, 3 h): no effect | effect on intracellular accumulation of doxorubicin (MCF7/siMCJ-1B cells [5]; confocal microscopy, doxorubicin 3 h): clear intracellular accumulation was observed | effect on intracellular accumulation of doxorubicin (MCF7/siMCJ-1B cells [5]; flow cytometry, doxorubicin 3 μM, 3 h): allowed the intracellular accumulation of doxorubicin

IL-6: exogenous IL-6 added to MCF7 cell culture
MCJ mRNA levels compared with untreated MCF7 cells (MCJ): reduced levels
